The series has as its system C57BL/6 mouse model of alopecia. The experiment in a line: Topical administration and hair growth in C57BL/6 mouse model of alopecia (telogen phase, clipped dorsal skin). In kind it is in vivo. Conditions: for animals with visual melanogenesis in peeled skin: end of study; for day of skin colour change from pink to light grey (transition from telogen to anagen phase): after hair growth induction; for adverse effects in relation to general health or body weight: topical twice daily, 5 days/week, 4 weeks, compared to vehicle group. The source says:
Dorsal hair of C57BL/6 mouse is known to have a time synchronized hair cycle. From about 18-21 days of age (2-3 weeks old) and 47-95 days of age (6-14 weeks old), the dorsal hair are in the telogen/quiescent phase (visually pink skin) [Lee B H, Lee J S, Kim Y C. Hair growth-promoting effects of lavender oil in C57BL/6 mice. Toxicol Res. (2016) 32(2):103-108; Choi H I, Kang B M, Jang J, Hwang S T, Kwon O. Novel effect of sildenafil on hair growth. Biochem Biophys Res Commun. (2018) 505(3):685-691]. C57BL/6 mouse therefore is a well-established model for studying hair growth promotion.
Male and female C57BL/6 mice of 6 to 9 weeks of age in stable telogen phase of hair growth cycle were used (obtained from Vivo Bio Tech Ltd, Telangana, India).
50 μL of a clear solution of respective 0.02%, 0.002% and 0.0002% (w/v) concentrations of Cpd 1 in the corresponding vehicle (PEG-400:EtOH/7:3) (PEG-400: Central Drug House Ltd. Dehli, India; Ethanol: Changshu Hongsheng fine chemicals Co. Ltd. China) and the positive control, 2% solution (female) or 5% (male) (w/v) Minoxidil (Chemieliva, China) in the corresponding vehicle (PEG-400:EtOH/7:3) were topically applied to the clipped area on the dorsal back of the mice. The solutions covered a circular area of approximately 2 cm^2. The treatment regimen was twice daily application for 5 days/week for total of 4 weeks.
The selected animals on day 1 weighted on average 20.05 g±0.17 ranging from 19.8 to 20.2 g. The hair on the dorsal back (approx. 4×4 cm^2) of these animals were clipped without touching the skin of the animal, using an electric clipper, on day 0 before the treatment with Cpd 1 and the hair was collected. The treatment followed by visual analysis for anagen onset, skin color change and appearance of any hair growth were monitored. After completion of the experiment, the dorsal skin of all the animals was removed and visual melanogenesis was reported. The skin sections were then preserved in 10% formalin solution for further histopathology analysis.
Animals were observed during 30 days and the hair growth score was recorded on daily basis. The criteria for scoring of hair growth is as follows: no hair growth, pink skin—score 0; skin colour changes from pink to grey/light grey without visible hair growth—score 0.5 onset of anagen (skin colour changes from grey/light grey to dark grey/black without visible hair growth)—score 1; sparse hair growth—score 1.5; diffuse short hair growth—score 2, moderate hair growth—score 2.5 and dense, normal coat hair—score 3 (Lee B H, Lee J S, Kim Y C. Hair growth-promoting effects of lavender oil in C57BL/6 mice. Toxicol Res. (2016) 32(2):103-108).
Photographs of the animals were captured before the initiation and during the course of the study.
After completion of the experiments all animals were sacrificed by euthanasia (Choi H I, Kang B M, Jang J, Hwang S T, Kwon O. Novel effect of sildenafil on hair growth. Biochem Biophys Res Commun. (2018) 505(3):685-691). The dorsal skin of each animal was then removed by peeling. The peeled skin was spread and checked visually for the induction of melanogenesis indicated by visual blackening on the reverse side of the skin. The skin samples were evenly spread on a pre-labelled glass slide and kept in 10% formalin until further use. Later, the skin samples were embedded in paraffin and sectioned at 5 microns using a microtome and the corresponding slides per animal were prepared. The slides obtained were used for Haematoxylin & Eosin (H&E) staining and in the transverse and longitudinal sections' photomicrographs data, the total number of follicles in the dermis and the sub cutis were determined for each animal. The skin thickness was measured using Image J 1.44 software.
The statistical analyses were performed using GraphPad Prism 9.0.0 software. Statistical significance was determined by One-way or Two-Way ANOVA followed by Tukey's multiple comparison test. […]

Data on one compound can be found in patent publication US20250161309A1, “TOPICAL COMPOSITIONS AND USES THEROF” (TOPADUR PHARMA AG, priority 2022, published 2025).

Turning to `CCCOc1ccc(S(=O)(=O)N2CCC(CCO[N+](=O)[O-])(CCO[N+](=O)[O-])CC2)cc1-c1nc2c(CCC)cn(CC)c2c(=O)[nH]1` [Cpd 1, (1-((3-(5-ethyl-4-oxo-7-propyl-4,5-dihydro-3H-pyrrolo[3,2-d]pyrimidin-2-yl)-4-propoxyphenyl)sulfonyl)piperidine-4,4-diyl)bis(ethane-2,1-diyl) dinitrate], under “female mice”, the “number of follicles in the subcutis layer of the skin and total follicle counts compared to control group” value is given as “considerable higher number”; the “adverse effects in relation to general health or body weight” value is recorded as “No adverse effects”. Further, where the note is “female mice, 0.0002% (w/v)”, the “animals with visual melanogenesis in peeled skin” value (“animals with visual melanogenesis” below) is reported as 2/5. For the same compound, under “female mice, 0.0002% and 0.002% groups”, the “anagen hair follicles (histology, H&E) compared to vehicle and 2% Minoxidil” value was “more”. Moreover, under “female mice, 0.002% (w/v)”, the “day of skin colour change from pink to light grey (transition from telogen to anagen phase)” value came to 10 day and the “animals with visual melanogenesis” value was 2/5. In addition, the “hair growth score among treatment groups” value (female mice, 0.002% (w/v), at day 30, followed by low dose groups and Minoxidil group) is given as “maximal”. In addition, the “hair growth (score) compared to vehicle group” value (female mice, 0.002% (w/v), from day 26 on) is listed as “significantly higher”. Under “female mice, Cpd 1 treatment”, the “skin thickness compared to vehicle and 2% Minoxidil groups” value is “increased”. The “area of black skin compared to control groups” value (female mice, at day 24) was “larger”. Besides, for the setting “male mice”, the “number of follicles in the subcutis layer of the skin and total follicle counts compared to control group” value was “considerable higher number”; the “adverse effects in relation to general health or body weight” value was “No adverse effects”. Moreover, where the note is “male mice, 0.002% (w/v)”, the “skin thickness compared to vehicle group” value was “increased”, the “day of skin colour change from pink to light grey (transition from telogen to anagen phase)” value is on record as 10 day and the “animals with visual melanogenesis” value is 2/5. In addition, the “hair growth (score) compared to vehicle” value (male mice, 0.002% (w/v) in PEG-400:EtOH/7:3, from day 5 on) was “significantly higher”. Besides, the “hair growth compared to vehicle group” value (male mice, 0.002% (w/v), at day 22) was “significantly higher”. Further, the “hair growth (score) compared to 5% Minoxidil” value (male mice, 0.002% (w/v), from day 15) is given as “significant increase”. The “anagen hair follicles (histology, H&E)” value (male mice, Cpd 1-treated groups) is recorded as “more”.
